Test results reported in ChEMBL document CHEMBL5096171, “Synthesis and Biological Evaluation of PSMA Ligands with Aromatic Residues and Fluorescent Conjugates Based on Them” (J Med Chem, 2021).
In brackets after ≈: the same amount, converted by molar mass. Blank lines part the entries; values can stand above or below the molecule they belong to.

Key:
[1] = Drug uptake in skin capillary of Balb/c nude mouse xenografted with human 22Rv1 cells at 0.449 mg/kg, IT administered as single dose measured after 24 hrs; format: ADME, organism-based, Skin of body, CWR22R; settings: in vivo, other
[2] = Drug uptake in human 22Rv1 cells assessed as decrease in drug accumulation incubated for 1 hr in presence of (3S,7S,25S,28S)-33-Azido-25-benzyl-12-(3-chlorobenzyl)-28-(4-hydroxybenzyl)-5,13,20,23,26,29-hexaoxo-4,6,12,19,24,27,30-heptaazatritriacontane-1,3,7-tricarboxylic acid by flow cytometry; format: ADME, cell-based; settings: cwr22r
[3] = Drug uptake in human 22Rv1 cells xenografted in Balb/c nude mouse assessed as amount of fluorescence intensity at 0.449 mg/kg, IT administered as single dose measured after 24 hrs by IVIS Spectrum CT analysis; format: ADME, organism-based, CWR22R; settings: in vivo, other
[4] = Drug excretion in Balb/c nude mouse xenografted with human 22Rv1 cells assessed as non-specifically bound drug at 0.449 mg/kg, IT administered as single dose measured after 24 hrs; format: ADME, organism-based, CWR22R; settings: in vivo, other
[5] = Drug excretion in […] at 0.449 mg/kg, IT administered as single dose measured after 24 hrs; format: ADME, organism-based, CWR22R; settings: in vivo, other
[6] = Drug uptake in human LNCaP cells assessed as fold decrease in drug accumulation incubated for 1 hr in presence of (3S,7S,25S,28S)-33-Azido-25-benzyl-12-(3-chlorobenzyl)-28-(4-hydroxybenzyl)-5,13,20,23,26,29-hexaoxo-4,6,12,19,24,27,30-heptaazatritriacontane-1,3,7-tricarboxylic acid by flow cytometry; format: ADME, cell-based
LNCaP = assay: Cytotoxicity against human LNCaP cells assessed as reduction in cell viability incubated for 5 days by MTT assay; format: functional; settings: 120 h, time 5 day
[7] = Drug localisation in human LNCaP cells assessed as increase in fluorescent signal at 100 nM incubated for 2 hrs by Hoechst 33342 staining based fluorescence microscopy; format: ADME, cell-based; settings: 0.1 µM
[8] = Drug uptake in human PC-3 cells xenografted in Balb/c nude mouse assessed as amount of fluorescence intensity at 0.449 mg/kg, IT administered as single dose measured after 24 hrs by IVIS Spectrum CT analysis; format: ADME, organism-based; settings: in vivo, other
[9] = target: T1, Glutamate carboxypeptidase 2 (Homo sapiens, UniProt Q04609); assay: Inhibition of PMSA in human LNCaP cells assessed as increase in fluorescent signal upto 100 nM incubated for 1 hr by flow cytometry (reference value: 2.11%); format: cell-based
Target sequence in this assay (Q04609 whole entry, looked up): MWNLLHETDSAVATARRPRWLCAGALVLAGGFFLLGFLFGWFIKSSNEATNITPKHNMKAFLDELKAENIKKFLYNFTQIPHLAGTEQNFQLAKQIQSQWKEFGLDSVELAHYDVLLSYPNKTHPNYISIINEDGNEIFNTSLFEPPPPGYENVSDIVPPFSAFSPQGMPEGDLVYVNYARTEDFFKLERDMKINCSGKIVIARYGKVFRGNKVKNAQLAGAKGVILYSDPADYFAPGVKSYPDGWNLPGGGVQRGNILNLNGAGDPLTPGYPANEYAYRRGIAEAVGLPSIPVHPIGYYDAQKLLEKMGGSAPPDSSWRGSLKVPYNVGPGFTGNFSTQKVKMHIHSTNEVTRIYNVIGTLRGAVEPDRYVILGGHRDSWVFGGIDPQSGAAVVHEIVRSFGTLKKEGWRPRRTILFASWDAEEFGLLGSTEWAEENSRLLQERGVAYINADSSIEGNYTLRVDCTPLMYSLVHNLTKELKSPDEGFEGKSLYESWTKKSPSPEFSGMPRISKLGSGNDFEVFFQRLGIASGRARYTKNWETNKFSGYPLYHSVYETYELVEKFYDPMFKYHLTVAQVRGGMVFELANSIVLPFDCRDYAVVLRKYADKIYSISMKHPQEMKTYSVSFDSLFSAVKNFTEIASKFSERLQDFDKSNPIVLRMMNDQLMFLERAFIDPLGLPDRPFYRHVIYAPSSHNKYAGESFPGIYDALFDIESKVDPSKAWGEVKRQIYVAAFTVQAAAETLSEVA

[10] = Drug uptake in human PC-3 cells assessed as decrease in drug accumulation incubated for 1 hr in presence of (3S,7S,25S,28S)-33-Azido-25-benzyl-12-(3-chlorobenzyl)-28-(4-hydroxybenzyl)-5,13,20,23,26,29-hexaoxo-4,6,12,19,24,27,30-heptaazatritriacontane-1,3,7-tricarboxylic acid by flow cytometry; format: ADME, cell-based; settings: pc-3, 1 h
[11] = target: T1, Glutamate carboxypeptidase 2; assay: Inhibition of PMSA in human 22Rv1 cells assessed as increase in fluorescent signal upto 100 nM incubated for 1 hr by flow cytometry (reference value: 2.97%); format: cell-based
Target sequence in this assay (Q04609 whole entry, looked up): as above

[12] = target: T1, Glutamate carboxypeptidase 2; assay: Inhibition of PSMA derived from human LNCaP cell lysate assessed as inhibition of NAAG hydrolysis incubated for 2 hrs in presence of NAAG by Amplex Red assay; format: subcellular
Target sequence in this assay (Q04609 whole entry): as the sequence (Q04609 whole entry, looked up) above

[13] = Drug uptake in bloodstream of Balb/c nude mouse xenografted with human 22Rv1 cells at 0.449 mg/kg, IT administered as single dose measured after 24 hrs; format: ADME, organism-based, Blood, CWR22R; settings: in vivo, other
PC-3 = assay: Cytotoxicity against human PC-3 cells assessed as reduction in cell viability incubated for 5 days by MTT assay; format: functional; settings: PC-3, 120 h, time 5 day
[14] = target: T1, Glutamate carboxypeptidase 2; assay: Inhibition of PMSA in human PC-3 cells assessed as increase in fluorescent signal upto 100 nM incubated for 1 hr by flow cytometry (reference value: 1.14%); format: cell-based
Target sequence in this assay (Q04609 whole entry, looked up): as above

[15] = Water solubility of the compound; format: physicochemical
[16] = n-Octanol/aqueous buffer distribution coefficient, log D of compound at pH 6.4 by shake flask method; format: physicochemical
[17] = Drug uptake in human LNCaP cells assessed as drug accumulation by measuring fluorescence signal at 4 uM incubated for 30 mins by flow cytometry; format: ADME, cell-based; settings: 0.5 h
[18] = Drug uptake in human PC-3 cells assessed as drug accumulation by measuring fluorescence signal at 4 uM incubated for 30 mins by flow cytometry; format: ADME, cell-based; settings: pc-3, 0.5 h
[19] = Drug uptake in human LNCaP cells assessed as decrease in drug accumulation incubated for 1 hr in presence of (3S,7S,25S,28S)-33-Azido-25-benzyl-12-(3-chlorobenzyl)-28-(4-hydroxybenzyl)-5,13,20,23,26,29-hexaoxo-4,6,12,19,24,27,30-heptaazatritriacontane-1,3,7-tricarboxylic acid by flow cytometry; format: ADME, cell-based
[20] = Drug uptake in human 22Rv1 cells assessed as drug accumulation by measuring fluorescence signal at 4 uM incubated for 30 mins by flow cytometry; format: ADME, cell-based; settings: cwr22r, 0.5 h

- Drug uptake [1]: Active
- Drug uptake [2]: Active
- Activity [3]: 1.5 10^9(p/s)(uW/cm^2)
- Drug excretion [4]: Active
- Drug excretion [5]: Active
- fold change (FC) [6]: 4.1
- Drug uptake [7]: Active
- Activity [8]: 1.5 10^9(p/s)(uW/cm^2)
- inhibition [9]: 95%
- Drug uptake [10]: Active
- inhibition [11]: 35.3%
- Ki [12]: 0.0026 µM
- Drug uptake [13]: Active
- inhibition [14]: 2.79%
- solubility [15]: 7000 µg/mL (≈ 4.05 mM)
- logD [16]: -1.2
SMILES: CN1/C(=C/C=C/C=C/C2=[N+](CCCCCC(=O)NCc3cn(CCCNC(=O)[C@H](Cc4ccc(O)cc4)NC(=O)[C@H](Cc4ccccc4)NC(=O)CCC(=O)NCCCCCC(=O)N(CCCC[C@H](NC(=O)N[C@@H](CCC(=O)O)C(=O)O)C(=O)O)Cc4cccc(Cl)c4)nn3)c3ccc(S(=O)(=O)[O-])cc3C2(C)C)C(C)(C)c2cc(S(=O)(=O)O)ccc21
- CC50 (LNCaP): > 100 µM
- CC50 (PC-3): > 100 µM

- Drug uptake [2]: Active
- Drug uptake [17]: 83.8%
- Drug uptake [18]: 7.6%
- Drug uptake [19]: Active
- Drug uptake [10]: Active
- Drug uptake [20]: 14.4%
SMILES: O=C(O)CC[C@H](NC(=O)N[C@@H](CCCCN(Cc1cccc(Cl)c1)C(=O)CCCCCNC(=O)CCC(=O)N[C@@H](Cc1ccccc1)C(=O)N[C@@H](Cc1ccc(O)cc1)C(=O)NCCCn1cc(CNC(=O)c2cccc3c2C(=O)OC32c3ccc(O)cc3Oc3cc(O)ccc32)nn1)C(=O)O)C(=O)O
